In the supplement of paper PMC10307832:

Key:
Assay in all cases: relative viability (nuclei count vs DMSO), 5 days (fraction); higher = more cells survive
[1] = compound: C#Cc1cccc(Nc2ncnc3cc(OCCOC)c(OCCOC)cc23)c1 [Erlotinib]
Summary of the method: (§1)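 Only plates meeting two conditions passed: control CV below 25% and at least one doubling. Lung cancer cell lines, kept overnight at 37 °C in 1536-well plates, were pinned with five library-drug doses (not always all listed) √10 apart on vehicle-anchored plates and grown 5 days without medium change. A one-step fix, permeabilisation and Hoechst stain preceded 4× imaging and MetaXpress nuclear counting. Viability equals treated-well nuclei divided by vehicle-well nuclei, as the median over plates.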

[2] = compound: O=C(Nc1c[nH]nc1-c1nc2ccc(CN3CCOCC3)cc2[nH]1)NC1CC1 [AT9283]
Summary of the method: as §1

[3] = compound: N=C(N)NC(=N)NCCc1ccccc1 [Phenformin] (anchor plate); conditions: 250 µM
Summary of the method: as §1

Cell Line	relative viability ([1]; 0.02 µM)	relative viability ([1]; 0.2 µM)	relative viability ([1]; 0.6325 µM)	relative viability ([1]; 2 µM)	relative viability ([2]; 0.003 µM)	relative viability ([2]; 0.03 µM)	relative viability ([2]; 0.09487 µM)	relative viability ([2]; 0.3 µM)	relative viability [3]
SK-MES-1	1.02	0.809	0.498	0.41	1.05	0.975	0.581	0.232	0.665
H3255	0.946	0.709	0.514	0.225	0.998	0.95	0.714	0.177	0.386
NCI-H2126	0.961	0.82	0.773	0.636	0.963	0.991	0.829	0.407	0.535
NCI-H1703	1.01	0.911	1.02	0.989	0.957	0.31	0.335	0.28	–
SW 1573	1.02	0.955	1.02	0.925	0.913	0.326	0.222	0.177	0.385
NCI-H838	1	0.896	1.14	0.883	0.969	0.517	0.313	0.253	0.634
NCI-H1792	0.875	0.821	0.92	0.742	0.887	0.886	0.943	0.376	0.343
NCI-H1651	1.03	0.896	1.04	0.946	0.951	0.999	0.875	0.455	0.328
HARA	1.04	0.707	0.823	0.466	0.859	0.446	0.166	0.171	0.46
NCI-H1944	–	0.72	0.916	0.594	0.903	0.629	0.367	0.268	0.206
SK-LU-1	1.11	1.11	1.13	0.907	1.06	0.691	0.312	0.335	0.523
NCI-H650	0.827	0.974	1.06	0.806	0.835	0.883	0.633	0.204	0.464
PC-14	0.574	0.31	0.289	0.228	1.05	0.823	0.377	0.133	0.608
NCI-H2170	1.02	0.996	0.872	0.656	0.991	0.864	0.471	0.197	0.439
CAL-12T	1	0.785	0.618	0.521	1.06	0.828	0.451	0.227	0.597
IA-LM	0.947	0.777	1.08	0.885	0.853	0.735	0.267	0.111	–
A-427	1.03	0.957	1.08	1.01	0.929	0.453	0.264	0.242	0.323
PC-3 [JPC-3]	0.945	0.636	0.459	0.407	1.03	0.961	0.868	0.498	0.469
NCI-H1648	0.83	0.704	0.608	0.439	0.765	0.886	0.493	0.312	–
NCI-H1563	1.03	0.898	–	0.953	0.995	0.815	0.661	0.617	0.681
201T	0.963	0.957	0.946	0.865	0.909	0.97	0.537	0.361	0.45
ChaGo-K-1	0.977	1.05	1.04	0.903	0.849	0.91	0.451	0.396	0.514
LOU-NH91	0.831	0.696	0.756	0.68	0.936	0.812	0.614	0.48	0.705
NCI-H522	0.949	1.03	0.86	0.816	0.776	0.618	0.611	0.464	0.639
NCI-H1395	0.865	0.88	1.08	0.981	0.789	0.662	0.39	0.393	0.451

Cell Line	relative viability ([1]; 0.02 µM)	relative viability ([1]; 0.2 µM)	relative viability ([1]; 0.6325 µM)	relative viability ([1]; 2 µM)	relative viability ([2]; 0.003 µM)	relative viability ([2]; 0.03 µM)	relative viability ([2]; 0.09487 µM)	relative viability ([2]; 0.3 µM)	relative viability [3]
LXF-289	0.98	1.03	0.971	0.963	0.995	0.993	0.465	0.22	0.518
COR-L23	1.09	1.04	1.22	0.894	1.05	0.592	0.206	0.183	0.43
NCI-H23	0.959	0.757	1.16	0.979	0.895	0.71	0.432	0.306	0.749
NCI-H1975	0.946	0.961	1.11	0.786	0.944	1.03	0.801	0.545	0.409
NCI-H3122	0.987	–	1	0.977	0.982	0.963	0.619	0.236	0.386
NCI-H727	0.924	0.768	0.844	0.769	0.98	0.746	0.502	0.406	0.578
EMC-BAC-2	0.743	1.04	1.1	0.979	0.907	0.463	0.319	0.221	0.558
NCI-H2085	0.932	0.851	0.843	0.699	1	0.946	0.937	0.447	0.724
NCI-H1355	0.978	0.878	0.956	0.755	0.956	0.971	0.68	0.197	0.456
NCI-H358	1.01	0.631	0.547	0.308	0.863	0.2	0.192	0.158	0.359
NCI-H1755	1	1.02	1.06	0.935	1.02	1.01	0.617	0.639	0.626
COR-L 105	0.931	0.515	0.4	0.334	0.983	0.4	0.334	0.334	0.551
NCI-H647	0.878	0.829	1.08	0.912	0.902	0.434	0.167	0.11	0.554
BEN	0.927	0.954	1.19	0.961	0.874	0.965	0.23	0.278	0.263
SW 900	1	0.803	0.863	0.65	0.755	1.01	0.626	0.358	0.717
ABC-1	0.827	0.881	1.01	0.81	0.831	0.301	0.3	0.235	0.25
EPLC-272H	1.06	0.882	1.02	0.724	0.886	0.81	0.203	0.156	0.321
HCC-15	1.05	0.97	1.08	0.888	0.955	0.589	0.325	0.17	0.491
NCI-H520	1.04	0.899	1.1	1.03	0.76	0.551	0.372	0.223	0.671
EKVX	0.962	0.587	0.43	0.215	0.915	0.858	0.629	0.324	0.231
NCI-H596	0.992	0.861	0.933	0.91	0.935	0.955	0.909	0.539	0.733
NCI-H2009	1.07	0.998	1.08	0.996	1.03	0.859	0.423	0.26	0.485
NCI-H2228	0.959	1	1.07	0.871	1.08	0.769	0.33	0.187	0.318
LK-2	0.993	0.864	1.36	–	0.937	0.57	0.168	0.195	0.485
A549	0.918	0.936	0.963	0.879	0.917	0.458	0.125	0.0647	0.165

Cell Line	relative viability ([1]; 0.02 µM)	relative viability ([1]; 0.2 µM)	relative viability ([1]; 0.6325 µM)	relative viability ([1]; 2 µM)	relative viability ([2]; 0.003 µM)	relative viability ([2]; 0.03 µM)	relative viability ([2]; 0.09487 µM)	relative viability ([2]; 0.3 µM)	relative viability [3]
NCI-H460	0.994	0.959	1.05	0.96	0.985	0.931	0.542	0.21	0.529
UMC-11	0.956	0.944	1.18	0.964	0.903	0.171	0.146	0.212	0.318
Calu-6	1.01	0.986	1.01	0.907	1.01	0.299	0.246	0.273	–
NCI-H1793	–	0.521	0.63	0.455	0.858	1.03	0.39	0.321	0.401
EBC-1	0.977	0.988	0.978	0.897	0.969	0.289	0.164	0.165	–
NCI-H1437	1.01	1.03	1.03	0.958	0.95	0.976	0.55	0.22	0.296
HCC-366	1.03	1.07	0.984	1.01	0.956	0.938	0.54	0.204	0.608
NCI-H2087	1.03	1.03	1.07	0.879	0.988	0.63	0.269	0.16	0.453
LU99A	0.932	0.952	0.913	0.916	0.88	0.477	0.253	0.186	0.886
NCI-H1993	0.965	0.748	0.714	–	0.961	0.907	0.59	0.497	0.497
NCI-H1623	0.945	0.723	0.592	0.333	0.94	0.928	0.545	0.501	0.577
NCI-H2347	1.03	1.06	0.987	0.952	1.16	1	0.597	0.514	0.421
NCI-H1734	1.02	0.869	0.996	0.934	0.925	0.47	0.336	0.27	0.42
HCC-44	0.994	0.961	1.01	0.975	0.988	1	0.614	0.335	0.218
LCLC-97TM1	1.07	1.14	1.23	0.972	0.841	0.469	0.159	0.112	0.391
HOP-62	1.01	0.972	1.08	1.04	1	0.771	0.393	0.273	0.673
NCI-H2405	0.986	1	1.12	0.956	1	0.965	0.519	0.256	0.379
HCC-78	0.99	0.963	1.08	0.745	0.847	0.794	0.332	0.262	0.681
RERF-LC-KJ	0.947	0.879	0.871	0.716	0.986	0.667	0.431	0.27	0.42
NCI-H1915	1.07	1.01	–	0.977	0.925	0.929	0.461	0.256	0.359
NCI-H1666	0.973	0.928	0.855	0.728	0.975	0.847	0.66	0.535	0.571
NCI-H1650	0.739	0.756	0.838	0.671	0.933	0.788	0.447	0.3	0.465
NCI-H322M	0.825	0.703	0.574	0.513	0.817	0.67	0.469	0.474	0.791
LC-2-ad	0.998	1.08	1.01	0.826	0.93	0.695	0.233	0.177	0.605
NCI-H1299	1.03	1.02	1.05	0.992	1.03	0.699	0.473	0.364	–
